From patent publication US20140370521A1, “IDENTIFICATION OF TWO NOVEL BIOMARKERS FOR NIEMANN-PICK DISEASE TYPE C” (The USA , as Represented by the Secretary, Department of …, priority 2011, published 2014)
Entries after “also recorded” stand apart in the source; their conditions may differ.

What was measured:
[1] = system: galectin-3 (LGALS3); assay: Serum galectin-3 (LGALS3) by ELISA in NPC1 patients treated or not with miglustat; type: in vivo, human
Procedure: (§1) Since 60% of the patients were being treated with off-label miglustat, the effect of treatment on LGALS3 or CTSD concentrations were investigated. […] Since individual responses could be masked by the large degree of variation between patients, LGALS3 and CTSD concentrations were also assessed in serum samples from six patients before and after they begin the treatment.
(§2) The study was approved by the Eunice Kennedy Shriver National Institute of Child Health and Human Development Institutional Review Board. Informed consent and, when appropriate, assent were obtained. Serum samples were obtained from 16 male and 14 female NPC1 patients participating in a Natural History trial (06-CH-0186) and 16 control individuals of similar age and gender distribution. Mean age of patients and controls were 7.9±5.8 years old and 9.1±4.2 years old respectively (P-value=0.3720). Phenotypic severity was determined using the severity scale developed by Yanjanin et al., Am. J. Med. Genet. B. Neuropsychiatr. Genet. 153B:132-40 (2010), and ranged from 0 to 40. […]
(§3) Serum levels of cathepsin D (CTSD; EMD Millipore, Billerica, Mass.), and galectin-3 (LGALS3; R&D systems, Minneapolis, Minn.) were measured in triplicate by ELISA, following manufacturers' instructions. […]

[2] = system: cathepsin D (CTSD); assay: Serum cathepsin D (CTSD) by ELISA in NPC1 patients treated or not with miglustat; type: in vivo, human
Procedure: as §1, §2, §3

[3] = NPC patients; Patterson et al., Lancet Neurol. 6:765-72 (2007); cited from earlier work

CCCCN1C[C@H](O)[C@@H](O)[C@H](O)[C@H]1CO [miglustat]
LGALS3 concentrations in serum of NPC patients treated or not with miglustat ([1]; NPC1 patients, off-label miglustat versus untreated group, serum, FIG. 7B): No statistical difference; also recorded: no significant differences
Effect of miglustat treatment on LGALS3 level, before versus after start of treatment ([1]; six patients, serum samples before and after beginning treatment, FIG. 7D): did not have any effect
CTSD concentrations in serum of NPC patients treated or not with miglustat ([2]; NPC1 patients, off-label miglustat versus untreated group, serum, FIG. 7C): No statistical difference; also recorded: no significant differences
Effect of miglustat treatment on CTSD level, before versus after start of treatment ([2]; six patients, serum samples before and after beginning treatment, FIG. 7E): did not have any effect
Efficacy in slowing the neurological progression of the disease [3]: has shown efficacy in slowing the neurological progression of the disease
